According to patent publication US20080071089A1, “Process for the Manufacture of Rabeprazole Sodium” (Lupin Limited, priority 2005, published 2008):

How the values were obtained:
[1] = for Particle size: MALVERN mastersizer 2000, dispersant: light liquid paraffin; for mean particle diameter: amorphous solid as isolated and dried
[2] = 75% relative humidity, 40° C.
[3] = versus product with particle size of above 100 μm

Question: For COCCCOc1ccnc(C[S+]([O-])c2nc3ccccc3[nH]2)c1C.[Na] (racemic) [Example 1, (±)sodium-2-[[[4-(3-methoxypropoxy)-3-methyl-pyridinyl]methyl]sulfinyl]1H-benzimidazole], which Particle size [1] is on record?
Answer: 10 to 50 μm

Question: What about the mean particle diameter [1] of the same molecule?
Answer: 10 to 50 μm

Question: For COCCCOc1ccnc(C[S+]([O-])c2nc3ccccc3[nH]2)c1C.[Na] (racemic) [Example 2, (±)sodium-2-[[[4-(3-methoxypropoxy)-3-methyl-pyridinyl]methyl]sulfinyl]1H-benzimidazole], which Particle size [1] is on record?
Answer: 15 to 55 μm

Question: And the mean particle diameter [1]?
Answer: 15 to 55 μm

Question: For COCCCOc1ccnc(C[S+]([O-])c2nc3ccccc3[nH]2)c1C.[Na] (racemic) [Example 6 of U.S. Pat. No. 5045552, (±)sodium-2-[[[4-(3-methoxypropoxy)-3-methyl-pyridinyl]methyl]sulfinyl]1H-benzimidazole, reference compound], which Particle size [1] is on record?
Answer: 80 to 150 μm

Question: Which mean particle diameter [1] does the source give for “(±)sodium-2-[[[4-(3-methoxypropoxy)-3-methyl-pyridinyl]methyl]sulfinyl]1H-benzimidazole [amorphous rabeprazole sodium]” here?
Answer: 10 to 55 μm

Question: What about the stability [2] of the same molecule?
Answer: stable

Question: What about the bioavailability [3] of the same molecule?
Answer: better bioavailability
